± gives the expanded uncertainty stated by the source.

The conditions of the data set: Liquid, Closed cell (Static) method.

As for `C=C(F)C(F)(F)F` [2,3,3,3-tetrafluoro-1-propene], the “vapor or sublimation pressure” value by setting is: (283.15 K) 436.5 ± 7 kPa; (293.15 K) 591 ± 7.1 kPa; (303.15 K) 780.5 ± 7.1 kPa; (313.15 K) 1015.6 ± 7.2 kPa; (323.15 K) 1300.7 ± 7.2 kPa.
In the same order, the values of `CC(C)C` [2-methylpropane] are 222.2 ± 7 kPa, 303.3 ± 7 kPa, 406 ± 7 kPa, 530.3 ± 7 kPa and 684.4 ± 7.1 kPa.

The vapor or sublimation pressure is the pressure of vapour in equilibrium with the condensed phase.

Source of the values: the NIST ThermoML archive (doi:10.1016/j.fluid.2013.12.015).
